Assay results reported in US20250352524A1, “PREVENTION OF METASTATIC OUTGROWTH USING TEAD INHIBITORS” (Georgetown University, priority 2024, published 2025).

Legend:
[1] = tested on: bone marrow-derived macrophages; assay: Cytokine array of conditioned media, bone marrow-derived macrophages; type: cell-based, mouse; conditions: 1 μM VT107 for 24 hours
Description: Due to the shifts in immune signaling observed in the lung tissue upon TEAD inhibition (FIG. 9), immune cell populations were first analyzed by flow cytometry in the lungs and spleens of tumor naïve mice. Consistent with the Cibersort analysis of RNA-seq data, there was a decrease in the monocytes population and an increase in the tissue-resident alveolar macrophages (AM) (FIG. 10, Panel A). […] Next, it was sought to determine the specific effects of iTEAD treatment on lung resident versus bone-marrow derived macrophages, as the dynamics of these cell populations are crucial for the establishment of the metastatic niche (Ries et al., 2014; Qian et al., 2011). Macrophages were retrieved from the lungs by isolating F4/80+ cells, a specific marker for murine macrophages, by FACS (fluorescence-activated cell sorting) as well as bone marrow-derived macrophages from the femurs of naïve C57BL/6 mice that were then differentiated in vitro using macrophage colony stimulating factor (M-CSF). Macrophages were treated with 1 μM of VT107 for 24 hours before the conditioned media was collected and analyzed on a cytokine array. […] There was no change in the level of the other cytokines detected (FIG. 10, Panel B). […]

4T1 spheres = assay: 3D sphere co-culture assay, 4T1 spheres with T-cells and/or macrophages; type: cell-based, mouse; conditions: for cleaved caspase-3 in 4T1 cells: 24 hours
Protocol: T-cells were isolated from the spleens of naïve mice, activated by CD3/CD28, and treated with either 1 μM iTEAD or vehicle. Peritoneal macrophages were isolated from the peritoneal lavage of naïve mice after attachment on culture dishes and treated with either 1 μM iTEAD or vehicle. The immune cells were mixed with tumor cells that were aggregated into spheres in u-shaped molds for 24 hours (FIG. 7).
To investigate whether the effect of iTEAD treatment on macrophages can enhance their crosstalk with T-cells in the lung microenvironment, peritoneal macrophages+/−iTEAD were first isolated and characterized as a model of resident macrophages for ex vivo experiments (FIG. 14, Panel A). It was observed that treatment with VT107 decreased gene expression of M2-like and fibrosis regulators, Aldh1a1 and Cc117 (Chen et al., 2020), as well as TEAD4 and its downstream target gene Ankrd1. […] The iTEAD pretreated peritoneal macrophages and untreated T-cells isolated from the spleen of tumor naïve mice (FIG. 14, Panel A) were then mixed for 5 hours before collecting the conditioned media for analysis. […] Next, these immune cell mixes were added to 4T1 spheres that were embedded into matrix. […] This effect was reversed by an IL12 neutralizing antibody. No change in cleaved caspase-3 in 4T1 cells in the presence of VT107-treated T-cells or macrophages alone, was detected at 24 hours (FIG. 14, Panels C and D). 4T1 cells were then plated and allowed to attach on electrode-coated arrays to monitor cancer cell viability before the addition of macrophages+/−iTEAD and T-cells. […] This reversal of T-cell cytotoxicity by IL12 antibodies was not observed in VT107-treated T-cells in the absence of macrophages (FIG. 15, Panel E) indicating a critical role for IL12 in the crosstalk between macrophages and T-cells.
(§1) The hippo pathway has been implicated in T-cell development and function (Du et al., 2014; Ueda et al., 2012). For example, YAP expression is essential for tumor immune suppression by Treg cells that attenuates CD8 T-cell immunity (Geng et al., 2017; Ni et al., 2018; Lebid et al., 2020). […] To investigate whether VT107 directly affected T-cells, T-cells treated with VT107 were co-cultured with 4T1 cells in 2D for 72 hours. […] To further confirm T-cell activation upon TEAD activity reduction, we used Jurkat cells, a CD4 positive human lymphoma cell line (Schneider et al., 1977). […] However, here we show the specific effect of TEAD reduction on granzyme gene expression and degranulation that result in the killing of cancer cells.
One thousand 4T1 cells were aggregated in 81-well agarose molds (Microtissues, #Z764019). […] Images were captured using the Olympus BX40 microscope, and DAB signal per sphere was quantified in imageJ and normalized to the number of nuclei. […]

T-cells = assay: Degranulation assay of T-cells co-cultured with 4T1 cells; type: cell-based, BALB/c mice
Protocol: as §1
T-cells were isolated from the spleens of naïve BALB/c as described above and treated in vitro with DMSO control or VT107 for 24 hours. T-cells were then co-cultured with 4T1 cells with the same treatment conditions. After 72 hours, all cells were collected and subdued to flow cytometry using anti-CD45-AF700 (Biolegend, 103128), anti-CD8-BV785 (Biolegend, 100750), anti-CD4-Pacific Blue (Biolegend, 116007), anti-CD107a-PE/Cy7 (Biolegend, 121620), and Helix NP Blue (Biolegend, 425305). Analysis was performed on the BD FACSymphony Δ3 flow cytometer analyzer, and results were analyzed using FCS Express 7 Research (De Novo Software).

VT107
secreted IL4 levels [1]: reduced
secreted IL12 [1]: no effect
cleaved caspase-3 in 4T1 cells (4T1 spheres; VT107-treated T-cells or macrophages alone): No change
cleaved caspase-3 IHC staining of 4T1 spheres (4T1 spheres; co-culture with T-cells treated with 1 μM VT107, 72 hours): increased
number of 4T1 cells per sphere (4T1 spheres; co-culture with T-cells treated with 1 μM VT107, 72 hours vs vehicle): significantly reduced
cleaved caspase-3 in 4T1 cells (4T1 spheres; iTEAD-treated macrophages and T-cells, spheres in matrix): elevated signal
T-cell degranulation marker CD107a (T-cells; 1 μM VT107, co-culture with 4T1 cells 72 hours, flow cytometry): significantly increased
IFNγ levels (T-cells; T-cells treated with VT107, co-cultured with 4T1 cells in 2D for 72 hours): no change
